From US10017791B2, “Coryneform bacterium transformant and process for producing 4-hydroxybenzoic acid or salt thereof using the same” (GREEN PHENOL DEVELOPMENT CO., LTD., priority 2014, dated 2018)
pIC50: −log10 of the molar value.

Tests used:
Rhodobacter sphaeroides = experiment: Growth inhibition test in aerobic culture (influence of 4-HBA); assay type: cell-based; conditions: LB liquid medium, 30° C., OD610
Protocol: (§1) A growth inhibition test in aerobic culture was performed to examine the influence of 4-HBA on Corynebacterium glutamicum, Escherichia coli, Pseudomonas putida, and Rhodobacter sphaeroides. Pseudomonas putida S12, which was used for the test, is reported to be a solvent-resistant strain to produce 4-HBA via tyrosine.
Rhodobacter sphaeroides was applied to LB agar medium (1% polypeptone, 0.5% yeast extract, 0.5% NaCl and 1.5% agar) and was left stand in the dark at 30° C. for 20 hours.
An inoculation loop of the Rhodobacter sphaeroides grown on a plate as above was applied to LB liquid medium (1% polypeptone, 0.5% yeast extract, and 0.5% NaCl), and aerobic culture was performed with shaking at 30° C. for 13 hours.
(§2) The Rhodobacter sphaeroides grown in the above conditions was inoculated into 100 mL of LB liquid medium in such a way that the initial bacterial cell concentration would be OD=0.1, 4-HBA was added at the same time in such a way that the final concentration would be 0, 100, or 200 mM, and aerobic culture was performed with shaking at 30° C. The growth of the bacterial cells was determined by absorbance measurement at OD610.

[1] = biological target: T1, chorismate-pyruvate lyase of Escherichia coli (Escherichia coli, UniProt P26602); experiment: Product inhibition of chorismate-pyruvate lyase activity by 4-HBA (IC50); assay type: biochemical; conditions: cell lysate supernatant of strain HBA8
T1 construct: made in house; host or cells: Corynebacterium glutamicum R (crude cell-lysate supernatant)
T1 sequence (P26602 whole entry): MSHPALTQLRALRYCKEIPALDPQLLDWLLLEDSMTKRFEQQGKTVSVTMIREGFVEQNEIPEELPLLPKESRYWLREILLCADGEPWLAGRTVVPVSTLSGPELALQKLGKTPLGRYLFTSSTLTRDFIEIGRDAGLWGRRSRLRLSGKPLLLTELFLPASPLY
Protocol: (§3) Each kind of the bacterial cells cultured and proliferated as above was collected by centrifugation (8,000 rpm, 4° C., 10 minutes). After disrupting the bacterial cells by sonication, centrifugation (15,000 rpm, 4° C., 20 minutes) was performed. Using the supernatant of the cell lysate as a crude enzyme liquid, chorismate-pyruvate lyase activity was determined by the following method. The crude enzyme liquid, 50 mM Tris-HCl (pH 7.5), 0.5 mM of chorismate Ba salt, 0.2 mM of NADH, 0.2 M of NaCl and 5 units of lactate dehydrogenase were mixed, the reaction was allowed to proceed at 33° C., and the decrease in absorbance of NADH at 340 nm was monitored to analyze the initial rate of the reaction. From the initial rate of the reaction and the protein concentration, the specific activity was calculated (the amount of the enzyme that produces 1 μmol of 4-HBA per minute was defined as 1 unit). (After the reaction mixture was filtered, the resulting 4-HBA was subjected to HPLC for direct detection of the peak of 4-HBA (Cosmosil C18 ARII made by Nacalai Tesque, mobile phase: 20% methanol and 0.07% perchloric acid) to separately confirm that the two assay methods were similar in quantitative performance.)
(§4) Using the supernatants of the cell lysates of the strains of HBA-1 to HBA-21 prepared in Example 2, inhibition by the product, 4-HBA, was examined.

[2] = biological target: chorismate-pyruvate lyase of Pantoea ananatis (Pantoea ananatis, UniProt A0ACE3JNM4); experiment: as above; assay type: biochemical; conditions: cell lysate supernatant of strain HBA1
Chain of chorismate-pyruvate lyase of Pantoea ananatis (A0ACE3JNM4 1-170): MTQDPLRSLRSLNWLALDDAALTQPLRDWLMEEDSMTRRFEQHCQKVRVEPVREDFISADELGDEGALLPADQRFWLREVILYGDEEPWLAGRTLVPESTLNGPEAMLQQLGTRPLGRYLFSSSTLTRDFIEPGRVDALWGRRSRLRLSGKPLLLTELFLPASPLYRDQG
Protocol: as §3, §4

[3] = biological target: chorismate-pyruvate lyase of Escherichia fergusonii (Escherichia fergusonii, UniProt B7LL11); experiment: as above; assay type: biochemical; conditions: cell lysate supernatant of strain HBA9
Chain of chorismate-pyruvate lyase of Escherichia fergusonii (B7LL11 entry or part of it): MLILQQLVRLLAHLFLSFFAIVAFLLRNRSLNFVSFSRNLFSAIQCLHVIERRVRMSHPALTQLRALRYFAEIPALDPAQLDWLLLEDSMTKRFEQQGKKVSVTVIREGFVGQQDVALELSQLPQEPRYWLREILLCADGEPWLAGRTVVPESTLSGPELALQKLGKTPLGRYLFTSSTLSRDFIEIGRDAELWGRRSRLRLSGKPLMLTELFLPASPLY
Protocol: as §3, §4

[4] = biological target: chorismate-pyruvate lyase of Pseudoalteromonas piscicida (Pseudoalteromonas piscicida, UniProt A0ABN5CDX6, M1V); experiment: as above; assay type: biochemical; conditions: cell lysate supernatant of strain HBA10
Chain of chorismate-pyruvate lyase of Pseudoalteromonas piscicida (A0ABN5CDX6 1-160, stated change not applied): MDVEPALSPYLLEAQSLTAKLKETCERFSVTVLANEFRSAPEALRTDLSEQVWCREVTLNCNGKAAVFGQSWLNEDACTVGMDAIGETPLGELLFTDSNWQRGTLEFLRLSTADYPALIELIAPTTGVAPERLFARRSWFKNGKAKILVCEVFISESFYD
Protocol: as §3, §4

[5] = biological target: chorismate-pyruvate lyase of Providencia rustigianii (Providencia rustigianii, UniProt D1P752); experiment: as above; assay type: biochemical; conditions: cell lysate supernatant of strain HBA2
Chain of chorismate-pyruvate lyase of Providencia rustigianii (D1P752 1-167): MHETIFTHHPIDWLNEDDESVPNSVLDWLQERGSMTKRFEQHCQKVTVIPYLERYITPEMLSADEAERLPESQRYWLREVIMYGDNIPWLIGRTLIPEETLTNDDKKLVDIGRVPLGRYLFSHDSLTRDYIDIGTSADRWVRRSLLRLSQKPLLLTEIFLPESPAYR
Protocol: as §3, §4

[6] = biological target: chorismate-pyruvate lyase of Providencia stuartii (Providencia stuartii, UniProt A0A1S1HSD5); experiment: as above; assay type: biochemical; conditions: cell lysate supernatant of strain HBA3
Chain of chorismate-pyruvate lyase of Providencia stuartii (A0A1S1HSD5 entry or part of it): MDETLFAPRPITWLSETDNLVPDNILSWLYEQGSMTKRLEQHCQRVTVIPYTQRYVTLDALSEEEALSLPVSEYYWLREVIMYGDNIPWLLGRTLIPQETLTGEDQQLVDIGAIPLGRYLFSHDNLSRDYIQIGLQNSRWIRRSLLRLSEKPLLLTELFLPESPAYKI
Protocol: as §3, §4

[7] = biological target: chorismate-pyruvate lyase of Providencia alcalifaciens (Providencia alcalifaciens, UniProt B6XE56); experiment: as above; assay type: biochemical; conditions: cell lysate supernatant of strain HBA6
Chain of chorismate-pyruvate lyase of Providencia alcalifaciens (B6XE56 1-167): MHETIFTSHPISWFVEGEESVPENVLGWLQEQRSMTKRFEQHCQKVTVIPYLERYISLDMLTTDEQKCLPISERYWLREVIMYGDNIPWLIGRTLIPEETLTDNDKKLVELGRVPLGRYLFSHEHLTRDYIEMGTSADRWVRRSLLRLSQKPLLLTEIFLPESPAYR
Protocol: as §3, §4

[8] = biological target: chorismate-pyruvate lyase of Pseudomonas putida (Pseudomonas putida, UniProt Q88C66); experiment: as above; assay type: biochemical; conditions: cell lysate supernatant of strain HBA17
Chain of chorismate-pyruvate lyase of Pseudomonas putida (Q88C66 whole entry): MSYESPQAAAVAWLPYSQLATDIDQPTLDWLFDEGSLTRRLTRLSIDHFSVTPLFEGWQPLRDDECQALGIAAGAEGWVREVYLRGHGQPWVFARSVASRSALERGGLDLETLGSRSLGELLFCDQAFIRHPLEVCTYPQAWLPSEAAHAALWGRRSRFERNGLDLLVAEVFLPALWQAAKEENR
Protocol: as §3, §4

[9] = biological target: chorismate-pyruvate lyase of Morganella morganii (Morganella morganii, UniProt M1SIE1); experiment: as above; assay type: biochemical; conditions: cell lysate supernatant of strain HBA18
Chain of chorismate-pyruvate lyase of Morganella morganii (M1SIE1 entry or part of it): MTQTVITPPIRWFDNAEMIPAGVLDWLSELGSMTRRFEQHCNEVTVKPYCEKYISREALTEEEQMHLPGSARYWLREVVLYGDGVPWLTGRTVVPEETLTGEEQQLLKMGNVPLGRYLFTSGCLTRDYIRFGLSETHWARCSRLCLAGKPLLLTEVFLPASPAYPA
Protocol: as §3, §4

[10] = biological target: chorismate-pyruvate lyase of Providencia sneebia (Providencia sneebia, UniProt K8VZZ4); experiment: as above; assay type: biochemical; conditions: cell lysate supernatant of strain HBA4
Chain of chorismate-pyruvate lyase of Providencia sneebia (K8VZZ4 1-168): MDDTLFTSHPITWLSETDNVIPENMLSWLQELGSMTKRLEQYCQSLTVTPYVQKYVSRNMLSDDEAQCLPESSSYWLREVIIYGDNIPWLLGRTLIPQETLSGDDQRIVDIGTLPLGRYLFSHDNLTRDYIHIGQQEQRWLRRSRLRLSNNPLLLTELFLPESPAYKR
Protocol: as §3, §4

[11] = biological target: chorismate-pyruvate lyase of Cupriavidus taiwanensis (Cupriavidus taiwanensis, UniProt B3R6T5); experiment: as above; assay type: biochemical
Chain of chorismate-pyruvate lyase of Cupriavidus taiwanensis (B3R6T5 entry or part of it): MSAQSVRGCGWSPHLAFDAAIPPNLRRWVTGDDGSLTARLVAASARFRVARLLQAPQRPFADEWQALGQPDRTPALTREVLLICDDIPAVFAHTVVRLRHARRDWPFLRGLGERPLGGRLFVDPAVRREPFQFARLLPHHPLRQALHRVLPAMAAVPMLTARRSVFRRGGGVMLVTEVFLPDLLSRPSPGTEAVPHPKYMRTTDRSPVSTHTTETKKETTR
Protocol: as §3, §4

[12] = biological target: chorismate-pyruvate lyase of Azotobacter vinelandii (Azotobacter vinelandii, UniProt C1DK46); experiment: as above; assay type: biochemical; conditions: cell lysate supernatant of strain HBA19
Chain of chorismate-pyruvate lyase of Azotobacter vinelandii (C1DK46 1-183): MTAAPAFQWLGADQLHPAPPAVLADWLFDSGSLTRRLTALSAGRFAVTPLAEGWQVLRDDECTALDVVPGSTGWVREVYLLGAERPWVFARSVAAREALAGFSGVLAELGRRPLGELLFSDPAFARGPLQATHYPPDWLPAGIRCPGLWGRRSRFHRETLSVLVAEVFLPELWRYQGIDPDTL
Protocol: as §3, §4

[13] = biological target: T2, chorismate-pyruvate lyase of Cronobacter sakazakii (Cronobacter sakazakii, UniProt A7MPN9); experiment: as above; assay type: biochemical; conditions: cell lysate supernatant of strain HBA12
T2 construct: 5′-[…]-3′
T2 sequence (A7MPN9 whole entry, looked up): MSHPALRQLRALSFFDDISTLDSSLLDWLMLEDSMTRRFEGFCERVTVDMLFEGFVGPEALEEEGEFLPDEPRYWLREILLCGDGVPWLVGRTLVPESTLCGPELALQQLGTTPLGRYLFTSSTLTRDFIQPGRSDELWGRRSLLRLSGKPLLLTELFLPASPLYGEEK
Protocol: as §3, §4

[14] = biological target: chorismate-pyruvate lyase of Pseudoalteromonas haloplanktis (Pseudoalteromonas haloplanktis, UniProt A0A9W4VR20, L6V); experiment: as above; assay type: biochemical
Chain of chorismate-pyruvate lyase of Pseudoalteromonas haloplanktis (A0A9W4VR20 entry or part of it L6V): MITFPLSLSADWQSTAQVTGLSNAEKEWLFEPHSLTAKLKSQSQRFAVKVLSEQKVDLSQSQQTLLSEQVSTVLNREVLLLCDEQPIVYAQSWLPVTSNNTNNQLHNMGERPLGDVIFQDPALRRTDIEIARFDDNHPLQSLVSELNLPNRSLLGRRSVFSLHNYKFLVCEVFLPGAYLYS
Protocol: as §3, §4

[15] = biological target: chorismate-pyruvate lyase of Providencia burhodogranariea (Providencia burhodogranariea, UniProt K8VY45); experiment: as above; assay type: biochemical; conditions: cell lysate supernatant of strain HBA7
Chain of chorismate-pyruvate lyase of Providencia burhodogranariea (K8VY45 entry or part of it): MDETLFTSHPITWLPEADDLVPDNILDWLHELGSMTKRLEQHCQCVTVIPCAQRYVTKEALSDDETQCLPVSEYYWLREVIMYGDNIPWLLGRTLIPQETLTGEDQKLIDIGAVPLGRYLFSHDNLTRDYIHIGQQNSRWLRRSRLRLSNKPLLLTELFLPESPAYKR
Protocol: as §3, §4

[16] = biological target: chorismate-pyruvate lyase of Enterobacter aerogenes (Klebsiella aerogenes, UniProt A0A0H3FPH2); experiment: as above; assay type: biochemical; conditions: cell lysate supernatant of strain HBA15
Chain of chorismate-pyruvate lyase of Enterobacter aerogenes (A0A0H3FPH2 entry or part of it): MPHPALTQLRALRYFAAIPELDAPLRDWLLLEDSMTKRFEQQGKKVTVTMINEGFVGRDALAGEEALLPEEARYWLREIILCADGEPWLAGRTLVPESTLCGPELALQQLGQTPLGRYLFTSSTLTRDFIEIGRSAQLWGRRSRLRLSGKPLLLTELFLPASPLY
Protocol: as §3, §4

[17] = biological target: chorismate-pyruvate lyase of Shewanella putrefaciens (Shewanella putrefaciens, UniProt A0ABX8XB71); experiment: as above; assay type: biochemical; conditions: cell lysate supernatant of strain HBA20
Chain of chorismate-pyruvate lyase of Shewanella putrefaciens (A0ABX8XB71 entry or part of it): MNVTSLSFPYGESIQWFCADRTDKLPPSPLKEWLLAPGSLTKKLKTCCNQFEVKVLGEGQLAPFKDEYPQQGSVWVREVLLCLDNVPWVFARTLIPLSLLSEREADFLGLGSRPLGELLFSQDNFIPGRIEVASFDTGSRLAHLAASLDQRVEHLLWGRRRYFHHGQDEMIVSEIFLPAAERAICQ
Protocol: as §3, §4

[18] = biological target: chorismate-pyruvate lyase of Citrobacter koseri (Citrobacter koseri, UniProt A8AN89); experiment: as above; assay type: biochemical; conditions: cell lysate supernatant of strain HBA14
Chain of chorismate-pyruvate lyase of Citrobacter koseri (A8AN89 whole entry, looked up): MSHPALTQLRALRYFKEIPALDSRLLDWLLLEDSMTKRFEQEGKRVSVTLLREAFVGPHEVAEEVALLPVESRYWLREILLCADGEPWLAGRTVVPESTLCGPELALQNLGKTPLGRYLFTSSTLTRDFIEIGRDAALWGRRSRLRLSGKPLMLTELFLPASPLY
Protocol: as §3, §4

[19] = biological target: chorismate-pyruvate lyase of Enterobacter cloacae (Enterobacter cloacae, UniProt A0A0H3CH24); experiment: as above; assay type: biochemical; conditions: cell lysate supernatant of strain HBA16
Chain of chorismate-pyruvate lyase of Enterobacter cloacae (A0A0H3CH24 entry or part of it): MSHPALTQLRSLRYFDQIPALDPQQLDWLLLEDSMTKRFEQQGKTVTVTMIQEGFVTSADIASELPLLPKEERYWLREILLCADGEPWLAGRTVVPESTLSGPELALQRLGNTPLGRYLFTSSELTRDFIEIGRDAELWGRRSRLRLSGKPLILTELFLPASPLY
Protocol: as §3, §4

Pseudomonas putida S12 = experiment: Growth inhibition test in aerobic culture (influence of 4-HBA); assay type: cell-based; conditions: 200 mM 4-HBA, LB liquid medium, 30° C., OD610
Protocol: as §1
Pseudomonas putida S12 was applied to LB agar medium (1% polypeptone, 0.5% yeast extract, 0.5% NaCl and 1.5% agar) and was left stand in the dark at 30° C. for 15 hours.
An inoculation loop of the Pseudomonas putida S12 grown on a plate as above was applied to LB liquid medium (1% polypeptone, 0.5% yeast extract, and 0.5% NaCl), and aerobic culture was performed with shaking at 30° C. for 13 hours.
as §2, with “Pseudomonas putida S12” for “Rhodobacter sphaeroides”, “OD610=0.05,” for “OD=0.1,”, “100, 200,” for “100,”, “300” for “200”

[20] = test system: Corynebacterium glutamicum R; experiment: as above; assay type: cell-based; conditions: for Growth of Corynebacterium glutamicum: aerobic, A liquid medium, 33° C., OD610
Protocol: as §1
Corynebacterium glutamicum was applied to A agar medium (2 g of (NH2)2CO, 7 g of (NH4)2SO4, 0.5 g of KH2PO4, 0.5 g of K2HPO4, 0.5 g of MgSO4.7H2O, 1 mL of 0.06% (w/v) Fe2SO4.7H2O+0.042% (w/v) MnSO4.2H2O, 1 mL of 0.02% (w/v) biotin solution, 2 mL of 0.01% (w/v) thiamin solution, 2 g of yeast extract, 7 g of vitamin assay casamino acid, 40 g of glucose, and 15 g of agar were suspended in 1 L of distilled water) and was left stand in the dark at 33° C. for 15 hours.
An inoculation loop of Corynebacterium glutamicum R strain grown on a plate as above was inoculated into a test tube containing 10 mL of A liquid medium (2 g of (NH2)2CO, 7 g of (NH4)2SO4, 0.5 g of KH2PO4, 0.5 g of K2HPO4, 0.5 g of MgSO4.7H2O, 1 mL of 0.06% (w/v) Fe2SO4.7H2O+0.042% (w/v) MnSO4.2H2O, 1 mL of 0.02% (w/v) biotin solution, 2 mL of 0.01% (w/v) thiamin solution, 2 g of yeast extract, 7 g of vitamin assay casamino acid, and 40 g of glucose were suspended in 1 L of distilled water) and was aerobically cultured with shaking at 33° C. for 15 hours.
The Corynebacterium glutamicum R strain grown in the above conditions was inoculated into 10 mL of A liquid medium in such a way that the initial bacterial cell concentration would be OD610=0.05, 4-HBA was added at the same time in such a way that the final concentration would be 0, 100, 200, 250, or 300 mM, and aerobic culture was performed with shaking at 33° C. The growth of the bacterial cells was determined by absorbance measurement at OD610.

Escherichia coli JM109 = experiment: as above; assay type: cell-based; conditions: LB liquid medium, 37° C., OD610
Protocol: as §1
Escherichia coli JM109 was applied to LB agar medium (1% polypeptone, 0.5% yeast extract, 0.5% NaCl and 1.5% agar) and was left stand in the dark at 37° C. for 15 hours.
An inoculation loop of the Escherichia coli JM109 grown on a plate as above was applied to LB liquid medium (1% polypeptone, 0.5% yeast extract, and 0.5% NaCl), and aerobic culture was performed with shaking at 37° C. for 13 hours.
as §2, with “Escherichia coli JM109” for “Rhodobacter sphaeroides”, “OD=0.05,” for “OD=0.1,”, “37°” for “30°”

`O=C(O)c1ccc(O)cc1` [Strain 4-HBA, 4-hydroxybenzoic acid] was tested, and the “Growth of Rhodobacter sphaeroides” value (Rhodobacter sphaeroides; 100 mM 4-HBA) was “completely inhibited”, the “Growth of Rhodobacter sphaeroides” value (Rhodobacter sphaeroides; 200 mM 4-HBA) was “completely inhibited” and the pIC50 [1] was 4.17. The pIC50 [2] was 4.16, the pIC50 [3] was 4.10 and the pIC50 [4] was 4.14. For the same compound, the pIC50 [5] was 3.44, the pIC50 [6] was 3.43 and the pIC50 [7] was 3.52. It also gave a pIC50 [8] of 4.17, a pIC50 [9] of 4.21 and a pIC50 [10] of 3.47. It also gave a pIC50 [11] of 3.83, a pIC50 [12] of 4.16 and a pIC50 [13] of 4.12. The pIC50 [14] was 4.11, the pIC50 [15] was 3.40 and the pIC50 [16] was 4.14. The pIC50 [17] was 3.89, the pIC50 [18] was 4.08 and the pIC50 [19] was 3.98. The “Growth of Pseudomonas putida S12” value (Pseudomonas putida S12) was “completely inhibited”, the “Growth of Corynebacterium glutamicum” value ([20]; 200 mM 4-HBA) was “able to grow” and the “Growth, % of the OD610 of wild strain” value ([20]; 250 mM 4-HBA, 28 hours after the start of the culture, same extent as in the presence of 200 mM 4-HBA, data not shown) was “about 65%”. The “Growth of Corynebacterium glutamicum” value ([20]; 250 mM 4-HBA) was “able to grow”, the “Growth of Escherichia coli” value (Escherichia coli JM109; 100 mM 4-HBA) was “significantly affected” and the “Growth of Escherichia coli” value (Escherichia coli JM109; 200 mM 4-HBA) was “completely inhibited”.
